Conditions: solid, 1X ICH Option 1 light exposure, Atlas Suntest XLS+ light box, 320 nm cutoff filter
Procedure: A photochemical comparative study of Form XLI, Form XXV, and Form IV was performed.
Approximately 50 mg of each form was placed in 20 ml glass vials. The sample depth was <3 mm. The vials were covered with a quartz glass dish and placed in an Atlas Suntest XLS+ light box equipped with a 320 nm cutoff filter. […] The samples were exposed to artificial light equivalent to the International Conference on Harmonization (ICH) Guidelines for Photostability Testing of New Drug Substances, Option 1 exposure.

**Q.** With `CNC(=O)c1ccccc1Sc1ccc2c(/C=C/c3ccccn3)n[nH]c2c1` [Form XLI, 6-[2-(methylcarbamoyl)phenylsulfanyl]-3-E-[2-(pyridin-2-yl)ethenyl]indazole] as the molecule, how does the “Potency (wt/wt %) after light exposure” value read?
**A.** 89%

**Q.** With `CNC(=O)c1ccccc1Sc1ccc2c(/C=C/c3ccccn3)n[nH]c2c1` [Form XXV, 6-[2-(methylcarbamoyl)phenylsulfanyl]-3-E-[2-(pyridin-2-yl)ethenyl]indazole] as the molecule, how does the “Potency (wt/wt %) after light exposure” value read?
**A.** 100%

**Q.** With `CNC(=O)c1ccccc1Sc1ccc2c(/C=C/c3ccccn3)n[nH]c2c1` [Form IV, 6-[2-(methylcarbamoyl)phenylsulfanyl]-3-E-[2-(pyridin-2-yl)ethenyl]indazole] as the molecule, how does the “Potency (wt/wt %) after light exposure” value read?
**A.** 34%

Source: patent publication US8791140B2, “Crystalline forms of 6-[2-(methylcarbamoyl)phenylsulfanyl]-3-E-[2-(pyridin-2-yl)ethenyondazole suitable for the treatment of abnormal cell growth in mammals” (Pfizer Inc., priority 2007, dated 2014)
